Data reported in patent US20150105252A1, “SUBSTITUTED PYRAZOLES AS HERBICIDES” (E I DU PONT DE NEMOURS AND COMPANY, priority 2013, published 2015).

Experiments:
lambsquarters = experiment: Test C postemergence; assay type: in vivo, Chenopodium album; settings: for Plant response rating (scale of 0 to 100 where 0 is no effect and 100 is complete control), Lambsquarters: Postemergence, 31 g ai/ha, visually evaluated after 13 to 15 days; for Lambsquarters plant response rating / Plant response rating, Lambsquarters: postemergence; for Lambsquarters plant response rating: 62 g ai/ha, scale 0 to 100
Outline: (§1)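 Seeds were sown in a loam soil–sand blend and sprayed preemergence with compounds formulated in a non-phytotoxic solvent mixture containing surfactant. Postemergence plants, grown in peat/vermiculite medium to 2–18 cm (1- to 4-leaf stage), received the same formulation. After 13 to 15 days in a greenhouse, injury was rated visually against controls (0 = no effect, 100 = complete control).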

ragweed = experiment: Test C preemergence; assay type: in vivo, Ambrosia elation
Outline: as §1

ducksalad = experiment: Test B flood; assay type: in vivo, Heteranthera limosa; settings: 250 g ai/ha, visual rating on 0 to 100 scale (0 no effect, 100 complete control), 13 to 15 days
Outline: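 Plants were grown to the 2-leaf stage and pots flooded to 3 cm above soil. Compounds were applied directly into the paddy water, with depth kept for the test. After 13–15 days in greenhouse, response was rated visually against controls on a 0 (no effect) to 100 (complete control) scale.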

nutsedge, yellow = experiment: Test C preemergence; assay type: in vivo, Cyperus esculentus
Outline: as §1

waterhemp [1] = experiment: Test C postemergence; assay type: in vivo, Amaranthus rudis; settings: postemergence; for Plant response rating, Waterhemp: 250 g ai/ha, scale 0 to 100 (0 no effect, 100 complete control); for Waterhemp plant response rating: scale 0 to 100
Outline: as §1

wheat = experiment: Test A preemergence; assay type: in vivo, Triticum aestivum; settings: preemergence, 125 g ai/ha, visual injury approx. 10 days after treatment
Outline: (§2)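 Visual injury ratings, 0 = no effect to 100 = complete control, taken about 10 days after treatment against untreated controls. Test chemicals, in a non-phytotoxic surfactant-containing solvent, were sprayed onto soil preemergence or onto one- to two-leaf plants (2–10 cm) postemergence, in loam–sand soil under greenhouse conditions.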

corn = experiment: Test C postemergence; assay type: in vivo, Zea mays; settings: for Plant response rating (scale of 0 to 100 where 0 is no effect and 100 is complete control), Corn: Postemergence, 31 g ai/ha, visually evaluated after 13 to 15 days; for Corn plant response rating / Plant response rating, Corn: postemergence; for Corn plant response rating: 62 g ai/ha, scale 0 to 100
Outline: as §1

foxtail, giant = experiment: Test C preemergence; assay type: in vivo, Setaria faberii
Outline: as §1

pigweed = experiment: Test A postemergence; assay type: in vivo, Amaranthus retroflexus; settings: Postemergence
Outline: as §2

ryegrass, Italian [2] = experiment: Test C postemergence; assay type: in vivo, Lolium multiflorum; settings: postemergence
Outline: as §1

crabgrass, large = experiment: Test C preemergence; assay type: in vivo, Digitaria sanguinalis
Outline: as §1

waterhemp [3] = experiment: Test C preemergence; assay type: in vivo, Amaranthus rudis
Outline: as §1

ryegrass, Italian [4] = experiment: Test C preemergence; assay type: in vivo, Lolium multiflorum
Outline: as §1

[5] = 250 g ai/ha, scale 0 to 100 (0 no effect, 100 complete control)
[6] = 125 g ai/ha, scale 0 to 100, 0 no effect, 100 complete control
[7] = preemergence, 31 g ai/ha, visual rating, scale 0 to 100 (0 no effect, 100 complete control), 13 to 15 days
[8] = preemergence, 62 g ai/ha, scale 0 to 100 (0 no effect, 100 complete control), 13 to 15 days
[9] = preemergence, 125 g ai/ha, 13 to 15 days, scale 0 to 100, 0 = no effect, 100 = complete control
[10] = preemergence, 250 g ai/ha, scale 0 to 100, 0 is no effect, 100 is complete control
[11] = 125 g ai/ha, 0 to 100 scale, 0 no effect, 100 complete control
[12] = 500 g ai/ha, 0 to 100 scale (0 no effect, 100 complete control)
[13] = Preemergence, rate head not shown (block before 16 g ai/ha), scale 0 to 100

Row | Compound | Plant response rating (scale of 0 to 100 where 0 is no effect and 100 is complete control), Lambsquarters (lambsquarters) | Lambsquarters plant response rating (lambsquarters) | Plant response rating, Lambsquarters (lambsquarters; [5]) | Plant response rating, Lambsquarters (lambsquarters; [6]) | Ragweed plant response rating (ragweed; [8]) | Plant response rating, Ragweed (ragweed; [9]) | Ragweed plant response rating (ragweed; [10]) | Plant response rating, Ducksalad (ducksalad) | Nutsedge, Yellow plant response rating (nutsedge, yellow; [8]) | Plant response rating, Nutsedge, Yellow (nutsedge, yellow; [9]) | Nutsedge, Yellow plant response rating (nutsedge, yellow; [10]) | Plant response rating, Waterhemp (waterhemp [1]) | Waterhemp plant response rating (waterhemp [1]) | Wheat plant response rating (0 to 100 scale) (wheat) | Plant response rating (scale of 0 to 100 where 0 is no effect and 100 is complete control), Corn (corn) | Corn plant response rating (corn) | Plant response rating, Corn (corn; [5]) | Plant response rating, Corn (corn; [6]) | Foxtail, Giant plant response rating (foxtail, giant; [8]) | Plant response rating, Foxtail, Giant (foxtail, giant; [9]) | further results
1 | CCc1cc(C(=O)NCC(F)(F)F)nn1Cc1ccnc(SC(F)(F)F)c1 [Compound 214] | 35 | 50 | 80 | 75 | 98 | 100 | 98 | 90 | 55 | 65 | 65 | 70 | 60 | 80 | 0 | 5 | 10 | 5 | 98 | 100 | Ragweed plant response rating (ragweed; [7]): 85; Nutsedge, Yellow plant response rating (nutsedge, yellow; [7]): 25; Foxtail, Giant plant response rating (foxtail, giant; [7]): 90; Foxtail, Giant plant response rating (foxtail, giant; [10]): 100; Pigweed plant response rating (pigweed; [11]): 100; Pigweed plant response rating (pigweed; [12]): 100; Plant response rating, Ryegrass, Italian (ryegrass, Italian [2]; [5]): 15; Plant response rating, Ryegrass, Italian (ryegrass, Italian [2]; [6]): 5; Crabgrass, Large plant response rating (crabgrass, large; [7]): 100; Crabgrass, Large plant response rating (crabgrass, large; [8]): 100; Plant response rating, Crabgrass, Large (crabgrass, large; [9]): 100; Crabgrass, Large plant response rating (crabgrass, large; [10]): 100; Waterhemp plant response rating (waterhemp [3]; [7]): 100; Waterhemp plant response rating (waterhemp [3]; [8]): 100; Plant response rating, Waterhemp (waterhemp [3]; [9]): 100; Waterhemp plant response rating (waterhemp [3]; [10]): 100; Ryegrass, Italian plant response rating (ryegrass, Italian [4]; [7]): 5; Ryegrass, Italian plant response rating (ryegrass, Italian [4]; [8]): 30; Plant response rating, Ryegrass, Italian (ryegrass, Italian [4]; [9]): 70; Ryegrass, Italian plant response rating (ryegrass, Italian [4]; [10]): 80
2 | CCc1cc(C(=O)NC2CC2)nn1Cc1ccnc(Br)c1 [Compound 220] | 30 | 10 | 25 | 20 | 65 | 75 | 95 | 65 | 0 | 5 | 5 | 45 | 45 | 0 | 5 | 5 | 10 | 5 | 75 | 100 | Plant response rating, Ragweed (ragweed; [13]): 80; Plant response rating, Nutsedge, Yellow (nutsedge, yellow; [13]): 0; Plant response rating, Foxtail, Giant (foxtail, giant; [13]): 10; Foxtail, Giant plant response rating (foxtail, giant; [10]): 100; Pigweed plant response rating (pigweed; [11]): 90; Pigweed plant response rating (pigweed; [12]): 100; Plant response rating, Ryegrass, Italian (ryegrass, Italian [2]; [5]): 5; Plant response rating, Ryegrass, Italian (ryegrass, Italian [2]; [6]): 5; Plant response rating, Crabgrass, Large (crabgrass, large; [13]): 95; Crabgrass, Large plant response rating (crabgrass, large; [8]): 100; Plant response rating, Crabgrass, Large (crabgrass, large; [9]): 100; Crabgrass, Large plant response rating (crabgrass, large; [10]): 100; Plant response rating, Waterhemp (waterhemp [3]; [13]): 75; Waterhemp plant response rating (waterhemp [3]; [8]): 95; Plant response rating, Waterhemp (waterhemp [3]; [9]): 100; Waterhemp plant response rating (waterhemp [3]; [10]): 100; Plant response rating, Ryegrass, Italian (ryegrass, Italian [4]; [13]): 0; Ryegrass, Italian plant response rating (ryegrass, Italian [4]; [8]): 0; Plant response rating, Ryegrass, Italian (ryegrass, Italian [4]; [9]): 5; Ryegrass, Italian plant response rating (ryegrass, Italian [4]; [10]): 5
